{"source": "ChEMBL document CHEMBL5726023", "about": "“Fused azaheterocyclic compounds and their use as AMPA receptor modulators” (2018)", "assay": "Calcium Flux Assay: An in vitro assay was used to determine the potency of test compounds as inhibitors of the glutamate response of the channel formed by GluA1o-γ8. To ensure a 1:1 stoichiometry of GluA1o and γ8 subunits in the expressed channel, a fusion of the cDNAs for GRIA1o and CACNG8 was used. Following Shi et al (2009) The stoichiometry of AMPA receptors and TARPs varies by neuronal cell type. Neuron 62(5): 633-640), the C-terminus of the cDNA for GRIA1o was fused to the N-terminus of the cDNA for γ8. The linker sequence was QQQQQQQQQQEFAT. Channels expressed with this construct appear to have similar properties to channels formed by co-expression of GRIA1o with an excess of CACNG8 (Shi et al. 2009). A clonal cell line in HEK293 cells stably expressing this construct, with a geneticin selection marker, was generated for use in this assay.Cell expressing the GRIA1o-CACNG8 fusion construct were grown in a monolayer in 96- or 384-well microtiter plates. They were washed with assay buffer (135 mM NaCl, 4 mM KCl, 3 mM CaCl2, 1 mM MgCl2, 5 mM glucose, 10 mM HEPES, pH 7.4, 300 mOs) using a Biotek EL405 plate washer. The cells were then loaded with a calcium-sensitive dye (Calcium-5 or Calcium-6, Molecular Devices) and the test compounds at a range of concentrations. […]", "type": "cell-based"}
{"smiles": "Cc1cc(-c2c(C(F)(F)F)ccn3cc(C(C)C)nc23)cc2cn[nH]c12", "values": [{"measurement": "IC50", "result": 0.1, "unit": "nM"}]}
